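1) Cells in 96-well plates. 2) Compound, 48 h, 5 concentrations. 3) Linear interpolation between surrounding doses. 4) Unreached endpoint = highest concentration. Abbreviation: GI50, concentration required for 50% inhibition of growth.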 Active and inactive are the calls of the source. Rule as the data show it: active = GI50 up to about 1.1 µM and inactive = higher.
Legend:
Experiment in all cases: NCI anticancer screen, dose series, 48 h
SF-268 = test system: SF-268
A549 = test system: A549
M14 = test system: M14
HOP-62 = test system: HOP-62
COLO 205 = test system: COLO 205
EKVX = test system: EKVX
SNB-75 = test system: SNB-75
Hs-578T = test system: Hs-578T
CAKI-1 = test system: CAKI-1
T47D = test system: T47D
NCI-H522 = test system: NCI-H522
UACC-257 = test system: UACC-257
HT-29 = test system: HT-29
SK-MEL-5 = test system: SK-MEL-5
HCC 2998 = test system: HCC 2998
SF-295 = test system: SF-295
KM12 = test system: KM12
HCT-15 = test system: HCT-15
ACHN = test system: ACHN
HCT-116 = test system: HCT-116
HL-60 = test system: HL-60
SNB-19 = test system: SNB-19
TK-10 = test system: TK-10
RXF 393 = test system: RXF 393
SW-620 = test system: SW-620
UACC-62 = test system: UACC-62
OVCAR-4 = test system: OVCAR-4
RPMI-8226 = test system: RPMI-8226
MDA-MB-231 = test system: MDA-MB-231
OVCAR-8 = test system: OVCAR-8
NCI-H460 = test system: NCI-H460
MOLT-4 = test system: MOLT-4
BT-549 = test system: BT-549
MDA-MB-435 = test system: MDA-MB-435
NCI/ADR-RES = test system: NCI/ADR-RES
U-251 = test system: U-251
LOX IMVI = test system: LOX IMVI
OVCAR-3 = test system: OVCAR-3
SN12C = test system: SN12C
SK-MEL-2 = test system: SK-MEL-2
SR = test system: SR
OVCAR-5 = test system: OVCAR-5
CCRF-CEM = test system: CCRF-CEM
HOP-92 = test system: HOP-92
MDA-N = test system: MDA-N
Malme-3M = test system: Malme-3M
UO-31 = test system: UO-31
SK-OV-3 = test system: SK-OV-3
MCF7 = test system: MCF7
786-0 = test system: 786-0
K562 = test system: K562
NCI-H23 = test system: NCI-H23
DU-145 = test system: DU-145
IGROV-1 = test system: IGROV-1
NCI-H226 = test system: NCI-H226
SK-MEL-28 = test system: SK-MEL-28
A498 = test system: A498
PC-3 = test system: PC-3
SF-539 = test system: SF-539

CC1(C)S[C@@H]2[C@H](NC(=O)C3(N)CCCCC3)C(=O)N2[C@H]1C(=O)O [CYCLACILLIN]
GI50 (SF-268): > 100 µM (inactive)
GI50 (A549): > 100 µM (inactive)
GI50 (M14): > 100 µM (inactive)
GI50 (HOP-62): > 100 µM (inactive)
GI50 (COLO 205): > 100 µM (inactive)
GI50 (EKVX): > 100 µM (inactive)
GI50 (SNB-75): > 100 µM (inactive)
GI50 (Hs-578T): > 100 µM (inactive)
GI50 (CAKI-1): > 100 µM (inactive)
GI50 (T47D): > 100 µM (inactive)
GI50 (NCI-H522): > 100 µM (inactive)
GI50 (UACC-257): > 100 µM (inactive)
GI50 (HT-29): > 100 µM (inactive)
GI50 (SK-MEL-5): > 100 µM (inactive)
GI50 (HCC 2998): > 100 µM (inactive)
GI50 (SF-295): > 100 µM (inactive)
GI50 (KM12): > 100 µM (inactive)
GI50 (HCT-15): > 100 µM
GI50 (ACHN): > 100 µM (inactive)
GI50 (HCT-116): > 100 µM (inactive)
GI50 (HL-60): > 100 µM (inactive)
GI50 (SNB-19): > 100 µM (inactive)
GI50 (TK-10): > 100 µM (inactive)
GI50 (RXF 393): > 100 µM (inactive)
GI50 (SW-620): > 100 µM (inactive)
GI50 (UACC-62): > 100 µM (inactive)
GI50 (OVCAR-4): > 100 µM (inactive)
GI50 (RPMI-8226): > 100 µM (inactive)
GI50 (MDA-MB-231): > 100 µM (inactive)
GI50 (OVCAR-8): > 100 µM (inactive)
GI50 (NCI-H460): > 100 µM (inactive)
GI50 (MOLT-4): > 100 µM (inactive)
GI50 (BT-549): > 100 µM (inactive)
GI50 (MDA-MB-435): > 100 µM (inactive)
GI50 (NCI/ADR-RES): > 100 µM (inactive)
GI50 (U-251): > 100 µM (inactive)
GI50 (LOX IMVI): > 100 µM (inactive)
GI50 (OVCAR-3): > 100 µM (inactive)
GI50 (SN12C): > 100 µM (inactive)
GI50 (SK-MEL-2): > 100 µM (inactive)
GI50 (SR): > 100 µM (inactive)
GI50 (OVCAR-5): > 100 µM (inactive)
GI50 (CCRF-CEM): > 100 µM (inactive)
GI50 (HOP-92): > 100 µM (inactive)
GI50 (MDA-N): > 100 µM (inactive)
GI50 (Malme-3M): > 100 µM (inactive)
GI50 (UO-31): > 100 µM (inactive)
GI50 (SK-OV-3): > 100 µM (inactive)
GI50 (MCF7): > 100 µM (inactive)
GI50 (786-0): > 100 µM (inactive)
GI50 (K562): > 100 µM (inactive)
GI50 (NCI-H23): > 100 µM (inactive)
GI50 (DU-145): > 100 µM (inactive)
GI50 (IGROV-1): > 100 µM (inactive)
GI50 (NCI-H226): > 100 µM (inactive)
GI50 (SK-MEL-28): > 100 µM (inactive)
GI50 (A498): > 100 µM (inactive)
GI50 (PC-3): > 100 µM (inactive)
GI50 (SF-539): > 100 µM (inactive)

From ChEMBL document CHEMBL1201862, “PubChem BioAssay data set” (2004)
